In the supplement of paper PMC13380429:

Legend:
[1] = test system: A549-ACE2 infected with SARS-CoV-2; experiment: morphology score (similarity to uninfected cells); higher = more like uninfected cells; conditions: 24 h
Calu-3 [2] = experiment: drug sensitivity score (DSS) for viability; higher = more toxic; extreme values may be limits of the assay; conditions: 72 h
U2OS [3] = experiment: as above; conditions: 72 h
HepG2 [4] = experiment: as above; conditions: 72 h
Vero E6 [5] = experiment: as above; conditions: 72 h
Caco-2 [6] = experiment: as above; conditions: 72 h
Calu-3 [7] = experiment: cell viability relative to DMSO; higher = less toxic; conditions: 72 h
U2OS [8] = experiment: as above; conditions: 72 h
HepG2 [9] = experiment: as above; conditions: 72 h
Vero E6 [10] = experiment: as above; conditions: 72 h
Caco-2 [11] = experiment: as above; conditions: 72 h
Calu-3 [12] = experiment: relative viability EC50 (midpoint between 100% and the lowest measured viability); higher = less toxic; conditions: 72 h
U2OS [13] = experiment: as above; conditions: 72 h
HepG2 [14] = experiment: as above; conditions: 72 h
Vero E6 [15] = experiment: as above; conditions: 72 h
Caco-2 [16] = experiment: as above; conditions: 72 h

Compound | morphology score ([1]; 0.1 µM) | morphology score ([1]; 0.3 µM) | morphology score ([1]; 1 µM) | morphology score ([1]; 3 µM) | drug sensitivity score (Calu-3 [2]) | drug sensitivity score (U2OS [3]) | drug sensitivity score (HepG2 [4]) | drug sensitivity score (Vero E6 [5]) | drug sensitivity score (Caco-2 [6]) | cell viability (Calu-3 [7]; 1 nM) [%] | cell viability (Calu-3 [7]; 10 nM) [%] | cell viability (Calu-3 [7]; 100 nM) [%] | cell viability (Calu-3 [7]; 1000 nM) [%] | cell viability (Calu-3 [7]; 10000 nM) [%] | cell viability (U2OS [8]; 1 nM) [%] | cell viability (U2OS [8]; 10 nM) [%] | cell viability (U2OS [8]; 100 nM) [%] | cell viability (U2OS [8]; 1000 nM) [%] | cell viability (U2OS [8]; 10000 nM) [%] | cell viability (HepG2 [9]; 1 nM) [%] | cell viability (HepG2 [9]; 10 nM) [%] | cell viability (HepG2 [9]; 100 nM) [%] | cell viability (HepG2 [9]; 1000 nM) [%] | cell viability (HepG2 [9]; 10000 nM) [%] | cell viability (Vero E6 [10]; 1 nM) [%] | cell viability (Vero E6 [10]; 10 nM) [%] | cell viability (Vero E6 [10]; 100 nM) [%] | cell viability (Vero E6 [10]; 1000 nM) [%] | cell viability (Vero E6 [10]; 10000 nM) [%] | cell viability (Caco-2 [11]; 1 nM) [%] | cell viability (Caco-2 [11]; 10 nM) [%] | cell viability (Caco-2 [11]; 100 nM) [%] | cell viability (Caco-2 [11]; 1000 nM) [%] | cell viability (Caco-2 [11]; 10000 nM) [%] | relative viability EC50 (Calu-3 [12]) [µM] | relative viability EC50 (U2OS [13]) [µM] | relative viability EC50 (HepG2 [14]) [µM] | relative viability EC50 (Vero E6 [15]) [µM] | relative viability EC50 (Caco-2 [16]) [µM]
CCC(C)(C)C(=O)O[C@H]1C[C@@H](C)C=C2C=C[C@H](C)[C@H](CC[C@@H]3C[C@@H](O)CC(=O)O3)[C@H]21 [simvastatin] | 0.01 | 0.17 | 0.04 | -0.23 | – | – | – | – | – | – | – | – | – | – | – | – | – | – | – | – | – | – | – | – | – | – | – | – | – | – | – | – | – | – | – | – | – | – | –
CCC[C@H](N[C@@H](C)C(=O)N1[C@H](C(=O)O)C[C@@H]2CCCC[C@@H]21)C(=O)O [perindoprilat] | – | – | – | – | 0 | 0 | 0 | 0 | 0 | 100 | 96.1 | 90.6 | 103 | 93.2 | 95.2 | 98.5 | 94.6 | 105 | 92.2 | 104 | 96.3 | 103 | 105 | 96.5 | 104 | 104 | 100 | 95.3 | 97.8 | 103 | 93.9 | 107 | 96.8 | 138 | > 10 | > 10 | > 10 | > 10 | > 10
CC(=O)Oc1cc(C(F)(F)F)ccc1C(=O)O [triflusal] | – | – | – | – | 0 | 0 | 0 | 0 | 0 | 98.6 | 97.9 | 93.5 | 92.2 | 103 | 96.2 | 102 | 99.5 | 97.9 | 101 | 90.6 | 90.5 | 92.1 | 101 | 111 | 99.4 | 96.9 | 97.7 | 100 | 94.5 | 96 | 106 | 90 | 98.4 | 103 | > 10 | > 10 | > 10 | > 10 | > 10
Nc1nc2c(ccc3ccccc32)s1 [SKA-31] | – | – | – | – | 0 | 0 | 0 | 0 | 0 | 98.3 | 103 | 101 | 103 | 96.7 | 100 | 103 | 101 | 102 | 98.9 | 118 | 109 | 114 | 110 | 99.1 | 102 | 100 | 103 | 100 | 97.8 | 99.6 | 104 | 97.5 | 106 | 93.9 | > 10 | > 10 | > 10 | > 10 | > 10
Cc1nc2ccc(Oc3ccc(F)cc3)cc2c(=O)n1C[C@H]1CCCN(C(C)C)C1 [YIL-781] | – | – | – | – | 0 | 0 | 0 | 0 | 0 | 107 | 88.2 | 94.9 | 97.7 | 97.8 | 104 | 97.1 | 98.6 | 94.4 | 94.7 | 101 | 100 | 97.4 | 102 | 90.7 | 93.8 | 98.3 | 96.4 | 94.3 | 88.3 | 102 | 93.5 | 87.2 | 97.5 | 92.6 | > 10 | > 10 | > 10 | > 10 | > 10
Cc1occc(=O)c1[O-].Cc1occc(=O)c1[O-].[O]=[V+2] [bis(maltolato)oxovanadium(IV)] | – | – | – | – | 0.3 | 0 | 0 | 0 | 0 | 100 | 103 | 98 | 92.4 | 86.3 | 98.4 | 91.3 | 102 | 94.5 | 88.5 | 110 | 104 | 100 | 108 | 93 | 94 | 98.2 | 92.7 | 105 | 103 | 101 | 96 | 95.4 | 95.4 | 90.4 | > 10 | > 10 | > 10 | > 10 | > 10
Nc1ncnc2c1ncn2CCOCP(=O)(O)O [adefovir] | – | – | – | – | 0 | 0 | 0 | 0 | 0 | 97.4 | 103 | 104 | 98.2 | 96.2 | 90 | 99.1 | 94.1 | 98 | 100 | 104 | 99.6 | 98.5 | 98.7 | 101 | 109 | 90.7 | 91.2 | 104 | 108 | 106 | 100 | 90.2 | 85.7 | 110 | > 10 | > 10 | > 10 | > 10 | > 10
